Experimental data from patent publication US8221737B2, “Hepatitis C virus inhibitors” (Enanta Pharmaceuticals, Inc., priority 2009, dated 2012).

Test system: HCV 1b genotype replicon
Experiment: HCV replicon assay - qRT-PCR (HCV RNA detection)
Assay type: cell-based
Details: Hepatitis C virus, from the qRT-PCR or luciferase assay (not specified which), EC50 range class
From the text: HCV replicon cell lines (kindly provided by R. Bartenschlager) isolated from colonies as described by Lohman et. al. (Lohman et al. (1999) Science 285: 110-113, expressly incorporated by reference in its entirety) and used for all experiments. The HCV replicon has the nucleic acid sequence set forth in EMBL Accession No.: AJ242651, the coding sequence of which is from nucleotides 1801 to 8406.
The coding sequence of the published HCV replicon was synthesized and subsequently assembled in a modified plasmid pBR322 (Promega, Madison, Wis.) using standard molecular biology techniques. One replicon cell line (“SGR 11-7”) stably expresses HCV replicon RNA which consists of (i) the HCV 5′UTR fused to the first 12 amino acids of the capsid protein, (ii) the neomycin phosphotransferase gene (neo), (iii) the IRES from encephalomyocarditis virus (EMCV), and (iv) HCV NS2 to NS5B genes and the HCV 3′UTR. Another replicon cell line (“Huh-luc/neo-ET”) described by Vrolijk et. al. (Vrolijk et. al. (2003) Journal of Virological Methods 110:201-209, expressly incorporated by reference in its entirety) stably expresses HCV replicon RNA which consists of (i) the HCV 5′UTR fused to the first 12 amino acids of the capsid protein, (ii) the firefly luciferase reporter gene, (iii) the ubiquitin gene, (iv) the neomycin phosphotransferase gene (neo), (v) the IRES from encephalomyocarditis virus (EMCV), and (vi) HCV NS3 to NS5B genes that harbor cell culture adaptive mutations (E1202G, T12801, K1846T) and the HCV 3′UTR.
These cell lines were maintained at 37° C., 5% CO2, 100% relative humidity in DMEM (Cat#11965-084, Invitrogen), with 10% fetal calf serum (“FCS”, Invitrogen), 1% non-essential amino acids (Invitrogen), 1% of Glutamax (Invitrogen), 1% of 1 OOX penicillin/streptomycin (Cat#15140-122, Invitrogen) and Geneticin (Cat#10131-027, Invitrogen) at 0.75 mg/ml or 0.5 mg/ml for 11-7 and Huh-luc/neo-ET cells, respectively.
EC50 values of single agent compounds and combinations were determined by HCV RNA detection using quantitative RT-PCR, according to the manufacturer's instructions, with a TAQMAN® One-Step RT-PCR Master Mix Reagents Kit (Cat# AB 4309169, Applied Biosystems) on an ABI Model 7500 thermocycler. The TaqMan primers used for detecting and quantifying HCV RNA were obtained from Integrated DNA Technologies. HCV RNA was normalized to GAPDH RNA levels in drug-treated cells, which is detected and quantified using the Human GAPDH Endogenous Control Mix (Applied Biosystems, AB 4310884E). Total cellular RNA is purified from 96-well plates using the RNAqueous 96 kit (Ambion, Cat# AM1812). Chemical agent cytotoxicity is evaluated using an MTS assay according to the manufacturer's directions (Promega).
The compounds of the present invention can be effective against the HCV 1b genotype. It should also be understood that the compounds of the present invention can inhibit multiple genotypes of HCV. In one embodiment compound of the present invention are active against the 1a, 1b, 2a, 2b, 3a, 4a, and 5a genotypes. […] EC50 ranges against HCV 1b are as follows: A>10 nM; B1-10 nM; C<1 nM.

Compound | EC50 [nM]
COC(=O)N[C@H](C(=O)N1CCC[C@H]1c1ncc(-c2ccc3cc(-c4ccc5[nH]c(N6CCCN6C(=O)[C@@H](NC(=O)OC)C(C)C)nc5c4)ccc3c2)[nH]1)C(C)C [Example 368] | < 1
COC(=O)N[C@H](C(=O)N1CCC[C@H]1c1nc2ccc(C#Cc3ccc(-c4cnc([C@@H]5CCCN5C(=O)N(NC(=O)OC)C(C)C)[nH]4)cc3)cc2[nH]1)C(C)C [Example 369] | < 1
CCN(NC(=O)OC)C(=O)N1CCC[C@H]1c1ncc(-c2ccc(C#Cc3ccc4nc([C@@H]5CCCN5C(=O)[C@@H](NC(=O)OC)C(C)C)[nH]c4c3)cc2)[nH]1 [Example 370] | < 1
CCCN(NC(=O)OC)C(=O)N1CCC[C@H]1c1ncc(-c2ccc(C#Cc3ccc4nc([C@@H]5CCCN5C(=O)[C@@H](NC(=O)OC)C(C)C)[nH]c4c3)cc2)[nH]1 [Example 371] | < 1
COC(=O)N[C@H](C(=O)N1CCC[C@H]1c1nc2ccc(C#Cc3ccc(-c4cnc([C@@H]5CCCN5C(=O)N(CC(C)C)NC(=O)OC)[nH]4)cc3)cc2[nH]1)C(C)C [Example 372] | < 1
COC(=O)NN(C(=O)N1CCC[C@H]1c1ncc(-c2ccc(-c3ccc(-c4cnc([C@@H]5CCCN5C(=O)N(NC(=O)OC)C(C)C)[nH]4)cc3)cc2)[nH]1)C(C)C [Example 373] | < 1
COC(=O)N[C@H](C(=O)N1CCC[C@H]1c1ncc(-c2ccc(-c3ccc(-c4cnc([C@@H]5CCCN5C(=O)N(NC(=O)OC)C(C)C)[nH]4)cc3)cc2)[nH]1)C(C)C [Example 374] | < 1
CCN(NC(=O)OC)C(=O)N1CCC[C@H]1c1ncc(-c2ccc(-c3ccc(-c4cnc([C@@H]5CCCN5C(=O)[C@@H](NC(=O)OC)C(C)C)[nH]4)cc3)cc2)[nH]1 [Example 375] | < 1
